{
  "source": "patent US20230014226A1",
  "about": "“NEW COMPOUNDS AND METHODS” (BenevolentAI Bio Limited, priority 2019, published 2023)",
  "key": {"[1]": {"test_system": "murine Hb9-GFP+ motor neurons in co-culture with ALS patient iAstrocytes", "assay": "Human iAstrocyte - murine Hb9-GFP+ motor neuron co-culture", "assay_type": "cell-based, human iAstrocytes", "excerpt": "iNPCs (induced Neuronal Progenitor Cells) were derived from ALS patient fibroblasts as described previously (Meyer et al. 20148). iNPCs were differentiated into iAstrocytes by culturing in iAsrocyte media for at least 5 days. Murine motor neurons expressing the green fluorescent protein (GFP) under the Hb9 motor neuron-specific promoter (called from now on Hb9-GFP+) were differentiated from murine embryonic stem cells via embryoid bodies (EBs), as previously described (Haidet-Phillips et al. 20119, Wichterle et al. 200210).\niNPCs and mESC were split into iAstrocyte media and mEB media respectively on the same day, such that iAstrocytes and motor neurons will have both differentiated for 7 days when seeded together in co-culture.\nChanged media on iAstrocytes, and split using accutase if 90-100% confluent 3 days after seeding from iNPCs. iAstrocytes were left a further 2 days in iAstrocyte media until seeded onto 384-well plates.\nDiluted fibronection 1:400 in PBS, and 5 μL added per well. The plate was incubated with fibronectin at room temp for at least 5 mins.\nThe media was removed from iAstrocytes, and washed in PBS. 1 mL accutase per 10 cm plate was added, and incubated at 37° C. for 4 mins. The plate was tapped to dislodge any remaining iAstrocytes. The iAstrocytes were resuspended in iAstro media, and centrifuged at 200×g for 4 mins. The supernatant was removed, the falcon was flicked to vortex the cells, and resuspended the cells in an appropriate amount of iAstrocyte media. Counted cells using the haemocytometer, and diluted cells to an appropriate dilution for seeding. Seeded 1-2,000 iAstrocytes in 35 μL media on fibronectin-coated 384-well plates. Centrifuged 384-well plates at 1,760×rpm for 60 s using a PK120 (ALC) centrifuged (in neurogenetics) to collect media and cells to base of wells. Plates were left for 24 h for iAstrocytes to adhere to plate.\nDrugs were delivered in 100% drug-grade DMSO to iAstrocyte media using an Echo550 liquid handler (Labcyte). 384-well plates were centrifuged at 1,760×rpm for 60 s using a PK120 (ALC) centrifuge.\n2 plates of EBs were collected in a 50 mL tube and centrifuged for 4 mins at 200×g. The supernatant was removed from EBs after centrifugation, and washed in 10 mL PBS then centrifuged again for 4 mins at 200×g, and PBS wash removed.\nFor each 50 mL tube, 2.75 mL EB dissociation buffer was added and then 250 μL 200 U/mL (10×) Papain. The solution was gently pipetted up and down 10 times, using a P1000 pipette, against the side of the falcon (EB pellet was not pipetted directly). 50 mL tube was put in 37° C. water bath and incubated for 5 mins. Tube removed every 3 mins and gently shaken. After 5 mins, additional 2 mL of EB dissociation and 100 μL 200 U/mL (10×) Papain were added, which was then pipette again 5 times with P1000 pipette, and returned to the water bath for another 5 mins. It was returned to water bath as before, and incubated for no longer than 15-20 mins.\nCentrifuged for 5 mins at 300×g. Each 50 mL tube, 2.7 mL EB dissociation was prepared, to which 300 μL FBS and 150 μL 0.5 mg/mL DNaseI was added. The supernatant was removed from dissociated EBs and 3 mL of the FBS/DNaseI mix was added, pipetted up and down with P1000 pipette about 5 times. 5 mL FBS was added very slowly to the bottom of the falcon containing the dissociated EBs. The supernatant was removed and the cells very gently resuspended in about 3 mL MN media (more used if the pellet is large) and filtered through a 40 μm filter. 1 mL extra MN media was added to wash the filter.\n2,500 murine Hb9-GFP+ motor neurons were seeded per well in 10 μL motor neuron media on top of the pre-treated iAstrocytes. 384-well plates were centrifuged at 1,760×rpm for 60 s using a PK120 (ALC) centrifuge.\nDay8 15 μL motor neuron media were added per well. Hb9-GFP+ motor neurons were imaged using an INCELL analyser 2000 (GE Healthcare)—day 1 of co-culture. […]"}, "HUVEC": {"test_system": "HUVEC", "assay": "HUVEC Cell Viability (CV) assay", "assay_type": "cell-based, human", "conditions": "Homo sapiens, alamarBlue", "protocol": "Cells are seeded at 10,000 cells/well in 96-well plates in HUVEC specific cell culture media. Cells are plated and cultured overnight (16-24 h) at 37° C. After the overnight culture, cells are washed and fed with the Assay Medium. Test compounds are applied and incubated with the cells for the designated time period, after which the cell viability is measured by alamarBlue method. […] The final DMSO concentration is 1%.\nFluorescence readings are recorded after the test compound and alamarBlue incubation. The excitation and emission wavelengths are 530 nm and 590 nm, respectively.\nThe percent of control is calculated by comparing the readings in the presence of the test compound to the vehicle control. Subsequently, the percent inhibition is calculated by subtracting the percent control activity from 100. IC50 values (concentration causing a half-maximal inhibition of the control value) are determined by non-linear regression analysis of the concentration-response curves using the Hill equation.\nThe reference compound used for this assay is Staurosporine."}},
  "data": [
    {"smiles": "Cc1ccc(C(=O)Nc2cn(C(C)C)cn2)cc1C#Cc1cccnc1", "note": "[Example 25, N-(1-isopropylimidazol-4-yl)-4-methyl-3-[2-(3-pyridyl)ethynyl]benzamide]", "values": [
      {"measurement": "rescue of motor neuron survival in co-culture with patient-derived iAstrocytes (FIG. 3)", "setting": "[1]; 72 hours co-culture, dose dependant, maximum responses close to positive control (1 μM Nilotinib)", "value": "rescue motor neuron survival"},
      {"measurement": "efficacy at very high concentrations (motor neuron survival)", "setting": "[1]; potentially due to compound toxicity", "value": "reduction in efficacy at very high concentrations"},
      {"measurement": "IC50", "setting": "HUVEC", "value": 45, "unit": "µM"}
    ]}
  ]
}
